Values after ≈ are worked out from the molar mass of the structure shown. Like-named read-outs stand apart in the source and are kept apart here.
Legend:
ACC2 = ACC2 isolated from rat, mouse, monkey and human; cited from earlier work
ACC1 = ACC1 isolated from rat, mouse, monkey and human; cited from earlier work
Candida glabrata = assay: In vitro antifungal assay (broth microdilution, Micromyx), C. glabrata; format: cell-based; conditions: Nakaseomyces glabratus, ATCC90030, strain 0635 ATCC 90030, 35° C., approximately 24-48 hr
Procedure: (§1) Compounds of the present invention were also assayed in an in vitro antifungal assay against Candida glabrata, Candida tropicalis, and Aspergillus fumigatus, performed by Micromyx, a representative procedure of which follows. The test organisms were reference strains acquired from the American Type Culture Collection (ATCC). Upon receipt, the isolates were streaked onto Sabouraud Dextrose Agar (SDA). Colonies were harvested from these plates and a cell suspension was prepared in Sabouraud Dextrose Broth (Becton Dickinson, Sparks, Md.) containing cryoprotectant. Aliquots were then frozen at −80° C. Prior to the assay, the frozen seeds of all yeast isolates to be tested in that session were thawed and streaked for isolation onto SDA and incubated overnight at 35° C. All fungal isolates were previously streaked on SDA and incubated at 35° C. until spore formation occurred, followed by harvesting of the spores in sterile 0.85% saline and enumeration. The spore preps were stored at 4° C. Yeast and fungal isolates were tested in RPMI medium (Catalog No. SH30011.04; Lot No. AYB60287A; HyClone Labs, Logan, Utah) buffered with 0.165 M MOPS (Catalog No. 475898; Lot No. D00165859; CalBiochem, La Jolla, Calif.). The pH of the medium was adjusted to 7.0 with 1 N NaOH, sterile filtered using a 0.2 μm PES filter, and stored at 4° C. until used. All of the above media was prepared and stored according to guidelines from the Clinical and Laboratory Standards Institute (CLSI; 2-4). The broth microdilution assay method essentially followed the procedure described by CLSI (2-4) and employed automated liquid handlers to conduct serial dilutions and liquid transfers. Automated liquid handlers included the Multidrop 384 (Labsystems, Helsinki, Finland) and Biomek 2000 (Beckman Coulter, Fullerton Calif. The wells in columns 2-12 in standard 96-well microdilution plates (Costar 3795) were filled with 150 μl of the correct diluent. These would become the ‘mother plates’ from which ‘daughter’ or test plates would be prepared. The drugs (300 μL at 40× the desired top concentration in the test plates) were dispensed into the appropriate well in Column 1 of the mother plates. The Biomek 2000 was used to make serial two-fold dilutions through Column 11 in the “mother plate”. The wells of Column 12 contained no drug and were the organism growth control wells. The daughter plates were loaded with 185 μL per well of the appropriate test media using the Multidrop 384. The daughter plates were prepared using the Biomek FX which transferred 5 μL of drug solution from each well of a mother plate to the corresponding well of the correct daughter plate in a single step. A standardized inoculum of each organism was prepared per CLSI methods (2-4). For yeast isolates, colonies were picked from the primary plate and a suspension was prepared to equal a 0.5 McFarland turbidity standard. Suspensions were then diluted 1:100 in RPMI 1640 medium, resulting in a final inoculum concentration of 0.5-2.5×10^3 CFU/mL per test well. […] Standardized inoculum suspensions were transferred to compartments of sterile reservoirs divided by length (Beckman Coulter), and the Biomek 2000 was used to inoculate all plates. Daughter plates were placed on the Biomek 2000 in reverse orientation so that plates were inoculated from low to high drug concentration. The Biomek 2000 delivered 10 μL of standardized inoculum into each well of the appropriate daughter plate for an additional 1:20 dilution. Thus, the wells of the daughter plates ultimately contained 185 μL of the appropriate media, 5 μL of drug solution, and 10 μL of inoculum. The final concentration of DMSO (if used as a solvent) in the test well was 2.5%. Plates were stacked 3 high, covered with a lid on the top plate, placed into plastic bags, and incubated at 35° C. for approximately 24-48 hr for all yeast isolates, and 48 hr for all fungal isolates. Plates were viewed from the bottom using a plate viewer. […]

Candida tropicalis = assay: In vitro antifungal assay (broth microdilution, Micromyx), C. tropicalis; format: cell-based; conditions: ATCC90874, strain 0636 ATCC 90874, 35° C., approximately 24-48 hr
Procedure: as §1

Human ACC2 = Human ACC2 (Homo sapiens, UniProt O00763); assay: In vitro ACC2 inhibition assay (ADP-Glo), human ACC2; format: biochemical; conditions: 5 nM ACC2, 20 μM ATP, 20 μM acetyl-CoA
Aspergillus fumigatus = assay: In vitro antifungal assay (broth microdilution, Micromyx), A. fumigatus; format: cell-based; conditions: 48 hr
Procedure: as §1

[1] = system: C. parapsilosis ATCC 22019; assay: Anti-Fungal Activity Assay (broth microtiter MIC), C. parapsilosis; format: cell-based, Candida parapsilosis; conditions: Lodderomyces parapsilosis, ATCC22019, 48 h, 3 replicates; MIC recorded at 48 h; read-out: MIC C. parapsilosis ATCC 22019
Method in brief: (§2)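 Candida strains were grown from frozen stock on Sabouraud dextrose agar overnight at 35° C, then suspended directly in RPMI 1640+MOPS and quantified against standard curves. Broth microdilution MIC plates followed CLSI M27-A3; MICs were read visually against growth control at 48 h, with a 24 h read added for soraphen.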

C. albicans ATCC 90028 = assay: Anti-Fungal Activity Assay (broth microtiter MIC), C. albicans; format: cell-based, Candida albicans; conditions: Candida albicans, ATCC90028, 48 h, 3 replicates; MIC recorded at 48 h; read-out: MIC C. albicans ATCC 90028
Method in brief: as §2

C. krusei ATCC 6258 = assay: Anti-Fungal Activity Assay (broth microtiter MIC), C. krusei; format: cell-based, Candida krusei; conditions: Pichia kudriavzevii, ATCC6258, 48 h, 3 replicates; MIC recorded at 48 h; read-out: MIC C. krusei ATCC 6258
Method in brief: as §2

Fungal ACC2 = Fungal ACC2 (UniProt Q00955); conditions: read-out: Fungal ACC2 (IC50, in vitro ACC2 inhibition)
[2] = strain 5280 ATCC MYA-3626, 35° C., read-out: MIC, A. fumigatus 5280 ATCC MYA-3626
[3] = strain 6781 ATCC MYA-4609, 35° C., read-out: MIC, A. fumigatus 6781 ATCC MYA-4609

Sequence of Human ACC2 (O00763 whole entry): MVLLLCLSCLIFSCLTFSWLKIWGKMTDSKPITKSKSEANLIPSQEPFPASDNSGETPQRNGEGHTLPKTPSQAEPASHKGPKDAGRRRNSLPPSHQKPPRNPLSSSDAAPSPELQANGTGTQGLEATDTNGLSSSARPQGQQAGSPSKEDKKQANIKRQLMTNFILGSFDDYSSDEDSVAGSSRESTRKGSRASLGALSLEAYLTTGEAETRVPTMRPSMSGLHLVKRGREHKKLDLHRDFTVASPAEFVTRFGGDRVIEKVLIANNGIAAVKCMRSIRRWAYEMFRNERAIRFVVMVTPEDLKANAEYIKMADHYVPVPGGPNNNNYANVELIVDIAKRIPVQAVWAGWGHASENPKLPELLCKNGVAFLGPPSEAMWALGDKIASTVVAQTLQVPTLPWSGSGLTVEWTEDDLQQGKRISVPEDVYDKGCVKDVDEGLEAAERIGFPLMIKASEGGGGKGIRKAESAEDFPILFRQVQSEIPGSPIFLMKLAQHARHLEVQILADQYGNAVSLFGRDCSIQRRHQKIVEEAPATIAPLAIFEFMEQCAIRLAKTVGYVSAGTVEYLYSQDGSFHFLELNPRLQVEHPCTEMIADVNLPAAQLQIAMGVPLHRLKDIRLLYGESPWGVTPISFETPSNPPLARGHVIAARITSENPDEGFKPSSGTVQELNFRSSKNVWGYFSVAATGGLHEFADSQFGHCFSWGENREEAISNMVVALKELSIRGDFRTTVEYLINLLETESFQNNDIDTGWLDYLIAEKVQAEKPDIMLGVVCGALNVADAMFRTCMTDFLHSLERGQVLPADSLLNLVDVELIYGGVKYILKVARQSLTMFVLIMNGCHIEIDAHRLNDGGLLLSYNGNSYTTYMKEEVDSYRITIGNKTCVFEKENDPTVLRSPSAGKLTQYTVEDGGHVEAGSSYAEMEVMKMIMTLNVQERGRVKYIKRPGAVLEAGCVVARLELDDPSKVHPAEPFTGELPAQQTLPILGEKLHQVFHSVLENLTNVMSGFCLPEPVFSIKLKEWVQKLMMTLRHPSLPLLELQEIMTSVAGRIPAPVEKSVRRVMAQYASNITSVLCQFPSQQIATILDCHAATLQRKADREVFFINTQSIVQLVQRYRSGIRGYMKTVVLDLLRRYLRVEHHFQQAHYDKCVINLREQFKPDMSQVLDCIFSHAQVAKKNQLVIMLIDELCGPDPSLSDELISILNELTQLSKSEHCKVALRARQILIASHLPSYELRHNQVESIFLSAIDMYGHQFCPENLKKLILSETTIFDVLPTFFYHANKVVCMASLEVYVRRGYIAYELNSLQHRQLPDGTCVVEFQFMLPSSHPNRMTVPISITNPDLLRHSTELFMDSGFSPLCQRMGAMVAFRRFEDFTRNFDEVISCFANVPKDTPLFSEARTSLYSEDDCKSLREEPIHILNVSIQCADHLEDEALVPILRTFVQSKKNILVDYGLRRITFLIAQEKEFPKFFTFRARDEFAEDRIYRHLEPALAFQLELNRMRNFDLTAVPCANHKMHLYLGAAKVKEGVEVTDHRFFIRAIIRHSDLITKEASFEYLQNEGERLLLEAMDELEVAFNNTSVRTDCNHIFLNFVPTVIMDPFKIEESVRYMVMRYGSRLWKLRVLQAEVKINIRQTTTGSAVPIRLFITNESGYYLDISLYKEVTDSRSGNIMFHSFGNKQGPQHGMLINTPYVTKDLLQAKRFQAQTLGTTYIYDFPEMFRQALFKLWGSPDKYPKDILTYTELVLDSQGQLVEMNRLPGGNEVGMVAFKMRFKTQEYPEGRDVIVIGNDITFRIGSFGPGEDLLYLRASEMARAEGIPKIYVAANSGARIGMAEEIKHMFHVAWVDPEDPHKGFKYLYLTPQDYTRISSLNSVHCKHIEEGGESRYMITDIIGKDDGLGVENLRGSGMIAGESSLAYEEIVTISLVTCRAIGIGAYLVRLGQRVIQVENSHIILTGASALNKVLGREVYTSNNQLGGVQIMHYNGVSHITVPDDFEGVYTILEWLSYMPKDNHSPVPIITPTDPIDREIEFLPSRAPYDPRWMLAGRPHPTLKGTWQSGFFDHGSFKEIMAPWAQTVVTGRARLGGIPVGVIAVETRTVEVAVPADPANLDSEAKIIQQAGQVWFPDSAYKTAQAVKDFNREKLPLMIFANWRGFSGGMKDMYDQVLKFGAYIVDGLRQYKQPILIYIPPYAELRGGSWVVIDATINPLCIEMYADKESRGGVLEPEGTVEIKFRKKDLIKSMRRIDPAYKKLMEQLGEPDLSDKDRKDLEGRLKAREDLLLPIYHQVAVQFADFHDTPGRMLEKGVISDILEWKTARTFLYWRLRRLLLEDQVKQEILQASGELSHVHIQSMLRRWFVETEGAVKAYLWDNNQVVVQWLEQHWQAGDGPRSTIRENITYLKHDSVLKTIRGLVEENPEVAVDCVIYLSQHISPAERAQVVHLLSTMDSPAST
Sequence of Fungal ACC2 (Q00955 whole entry): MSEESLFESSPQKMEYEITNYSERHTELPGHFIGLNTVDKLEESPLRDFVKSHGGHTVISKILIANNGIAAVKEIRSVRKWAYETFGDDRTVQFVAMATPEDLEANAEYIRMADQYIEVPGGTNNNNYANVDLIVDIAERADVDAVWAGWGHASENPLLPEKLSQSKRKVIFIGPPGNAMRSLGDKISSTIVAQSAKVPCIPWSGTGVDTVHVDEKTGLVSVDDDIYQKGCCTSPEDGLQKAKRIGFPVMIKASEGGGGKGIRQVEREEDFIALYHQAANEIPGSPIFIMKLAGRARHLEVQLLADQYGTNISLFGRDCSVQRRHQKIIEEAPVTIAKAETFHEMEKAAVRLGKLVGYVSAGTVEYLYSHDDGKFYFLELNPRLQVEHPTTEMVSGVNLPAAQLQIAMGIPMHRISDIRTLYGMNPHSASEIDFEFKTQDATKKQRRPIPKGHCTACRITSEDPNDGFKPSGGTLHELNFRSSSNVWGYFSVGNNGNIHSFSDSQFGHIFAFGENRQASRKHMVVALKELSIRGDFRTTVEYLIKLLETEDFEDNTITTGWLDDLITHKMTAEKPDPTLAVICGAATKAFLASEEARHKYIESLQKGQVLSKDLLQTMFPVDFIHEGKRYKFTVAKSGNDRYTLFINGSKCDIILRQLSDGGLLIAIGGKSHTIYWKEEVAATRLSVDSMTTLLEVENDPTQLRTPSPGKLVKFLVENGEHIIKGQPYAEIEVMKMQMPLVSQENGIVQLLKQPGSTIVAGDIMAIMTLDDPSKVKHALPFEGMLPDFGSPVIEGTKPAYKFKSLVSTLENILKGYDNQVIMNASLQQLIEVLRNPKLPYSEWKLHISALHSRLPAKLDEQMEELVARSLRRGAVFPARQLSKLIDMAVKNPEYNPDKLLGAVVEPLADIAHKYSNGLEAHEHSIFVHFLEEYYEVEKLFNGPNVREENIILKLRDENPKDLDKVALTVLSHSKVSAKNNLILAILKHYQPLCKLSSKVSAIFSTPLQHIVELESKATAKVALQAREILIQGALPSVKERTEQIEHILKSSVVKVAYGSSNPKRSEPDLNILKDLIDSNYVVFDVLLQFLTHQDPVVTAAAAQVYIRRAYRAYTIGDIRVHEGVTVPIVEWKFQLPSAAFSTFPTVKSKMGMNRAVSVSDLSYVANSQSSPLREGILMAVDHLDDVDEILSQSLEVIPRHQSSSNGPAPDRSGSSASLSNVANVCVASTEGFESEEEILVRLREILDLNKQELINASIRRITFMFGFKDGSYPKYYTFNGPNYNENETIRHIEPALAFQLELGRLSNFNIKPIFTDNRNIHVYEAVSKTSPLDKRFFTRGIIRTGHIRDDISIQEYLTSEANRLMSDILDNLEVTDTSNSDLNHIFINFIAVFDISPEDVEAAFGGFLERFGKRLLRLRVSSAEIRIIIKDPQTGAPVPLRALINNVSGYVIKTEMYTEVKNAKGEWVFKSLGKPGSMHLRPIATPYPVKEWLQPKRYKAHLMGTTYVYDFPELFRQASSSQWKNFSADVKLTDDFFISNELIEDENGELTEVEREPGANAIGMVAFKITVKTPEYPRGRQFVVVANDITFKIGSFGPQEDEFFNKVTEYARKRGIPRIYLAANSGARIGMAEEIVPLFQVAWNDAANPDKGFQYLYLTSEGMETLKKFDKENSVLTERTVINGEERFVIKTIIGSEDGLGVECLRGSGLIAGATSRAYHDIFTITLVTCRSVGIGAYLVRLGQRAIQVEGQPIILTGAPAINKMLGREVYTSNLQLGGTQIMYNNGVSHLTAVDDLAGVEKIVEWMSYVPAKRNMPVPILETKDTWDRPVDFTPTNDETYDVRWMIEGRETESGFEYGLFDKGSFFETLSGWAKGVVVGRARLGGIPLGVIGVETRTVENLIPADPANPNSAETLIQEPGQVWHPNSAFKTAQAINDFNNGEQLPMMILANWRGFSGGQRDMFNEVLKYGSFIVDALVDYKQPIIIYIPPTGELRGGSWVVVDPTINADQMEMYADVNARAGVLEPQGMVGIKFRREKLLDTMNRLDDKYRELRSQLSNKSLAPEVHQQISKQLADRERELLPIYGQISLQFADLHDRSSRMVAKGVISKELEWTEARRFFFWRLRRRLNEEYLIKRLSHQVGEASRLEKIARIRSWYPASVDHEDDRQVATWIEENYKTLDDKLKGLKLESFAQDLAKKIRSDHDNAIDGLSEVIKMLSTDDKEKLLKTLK

SMILES | MIC (Candida glabrata) [µg/mL] | MIC (Candida tropicalis) [µg/mL] | IC50 (Human ACC2) [nM] | MIC (Aspergillus fumigatus; [2]) [µg/mL] | MIC (Aspergillus fumigatus; [3]) [µg/mL] | MIC [1] [µg/mL] | MIC (C. albicans ATCC 90028) [µg/mL] | MIC (C. krusei ATCC 6258) [µg/mL] | IC50 (ACC2) [nM] | IC50 (ACC1) [nM] | IC50 (Fungal ACC2) [nM]
O=C(c1c2ccccc2cc2ccccc12)N1CCC(N2CCC[C@@H](C(=O)N3CCOCC3)C2)CC1 [CP-640186] |  |  |  |  |  |  |  |  | ~60 | ~60 | 
COc1ccc(F)cc1[C@H](Cn1c(=O)n([C@@H]2CCN(C)C2=O)c(=O)c2c(C)c(-n3nccn3)sc21)OC1CCOCC1 [Compound I-36, 1-((R)-2-(5-fluoro-2-methoxyphenyl)-2-((tetrahydro-2H-pyran-4-yl)oxy)ethyl)-5-methyl-3-((R)-1-methyl-2-oxopyrrolidin-3-yl)-6-(2H-1,2,3-triazol-2-yl)thieno[2,3-d]pyrimidine-2,4(1H,3H)-dione] | > 4.1 | 0.25 to 1 (≈ 0.418 to 1.67 µM) | 2 to 10 | 0.25 to 1 (≈ 0.418 to 1.67 µM) | 0.25 to 1 (≈ 0.418 to 1.67 µM) | 0.25 to 1 (≈ 0.418 to 1.67 µM) | 0.25 to 1 (≈ 0.418 to 1.67 µM) | 0.25 to 1 (≈ 0.418 to 1.67 µM) |  |  | 2 to 10
COc1ccc(F)cc1[C@H](Cn1c(=O)n([C@H]2CCCN(C)C2=O)c(=O)c2c(C)c(-n3nccn3)sc21)OC1CCOCC1 [Compound I-39, 1-((R)-2-(5-fluoro-2-methoxyphenyl)-2-((tetrahydro-2H-pyran-4-yl)oxy)ethyl)-5-methyl-3-((S)-1-methyl-2-oxopiperidin-3-yl)-6-(2H-1,2,3-triazol-2-yl)thieno[2,3-d]pyrimidine-2,4(1H,3H)-dione] | > 4.1 | 0.25 to 1 (≈ 0.408 to 1.63 µM) | 2 to 10 | 1.1 to 2 (≈ 1.8 to 3.26 µM) | 1.1 to 2 (≈ 1.8 to 3.26 µM) | 0.25 to 1 (≈ 0.408 to 1.63 µM) | 0.25 to 1 (≈ 0.408 to 1.63 µM) | 0.25 to 1 (≈ 0.408 to 1.63 µM) |  |  | 0.7 to 2

The next lines start with results.

MIC (Candida glabrata) [µg/mL] | MIC (Candida tropicalis) [µg/mL] | IC50 (Human ACC2) [nM] | MIC (Aspergillus fumigatus; [2]) [µg/mL] | MIC (Aspergillus fumigatus; [3]) [µg/mL] | MIC [1] [µg/mL] | MIC (C. albicans ATCC 90028) [µg/mL] | MIC (C. krusei ATCC 6258) [µg/mL] | SMILES | IC50 (ACC2) [nM] | IC50 (ACC1) [nM] | IC50 (Fungal ACC2) [nM]
> 4.1 | 0.25 to 1 (≈ 0.408 to 1.63 µM) | 2 to 10 | 0.25 to 1 (≈ 0.408 to 1.63 µM) | 0.25 to 1 (≈ 0.408 to 1.63 µM) |  |  |  | CCN1CCC(n2c(=O)c3c(C)c(-n4nccn4)sc3n(C[C@H](OC3CCOCC3)c3cc(F)ccc3OC)c2=O)C1=O (stereo partly drawn) [Compound I-11, 3-(1-ethyl-2-oxopyrrolidin-3-yl)-1-((R)-2-(5-fluoro-2-methoxyphenyl)-2-((tetrahydro-2H-pyran-4-yl)oxy)ethyl)-5-methyl-6-(2H-1,2,3-triazol-2-yl)thieno[2,3-d]pyrimidine-2,4(1H,3H)-dione] |  |  | 
> 4.1 | 0.25 to 1 (≈ 0.399 to 1.6 µM) | 2 to 10 | 0.25 to 1 (≈ 0.399 to 1.6 µM) | 0.25 to 1 (≈ 0.399 to 1.6 µM) | 0.25 to 1 (≈ 0.399 to 1.6 µM) | 0.25 to 1 (≈ 0.399 to 1.6 µM) | 0.25 to 1 (≈ 0.399 to 1.6 µM) | COc1ccc(F)cc1[C@H](Cn1c(=O)n(C2CCN(C(C)C)C2=O)c(=O)c2c(C)c(-n3nccn3)sc21)OC1CCOCC1 (stereo partly drawn) [Compound I-12, 1-((R)-2-(5-fluoro-2-methoxyphenyl)-2-((tetrahydro-2H-pyran-4-yl)oxy)ethyl)-3-(1-isopropyl-2-oxopyrrolidin-3-yl)-5-methyl-6-(2H-1,2,3-triazol-2-yl)thieno[2,3-d]pyrimidine-2,4(1H,3H)-dione] |  |  | 
> 4.1 | 0.25 to 1 (≈ 0.428 to 1.71 µM) | 2 to 10 | 1.1 to 2 (≈ 1.88 to 3.42 µM) | 1.1 to 2 (≈ 1.88 to 3.42 µM) | 0.25 to 1 (≈ 0.428 to 1.71 µM) | 0.25 to 1 (≈ 0.428 to 1.71 µM) | 0.25 to 1 (≈ 0.428 to 1.71 µM) | COc1ccc(F)cc1[C@H](Cn1c(=O)n([C@@H]2CCNC2=O)c(=O)c2c(C)c(-n3nccn3)sc21)OC1CCOCC1 [Compound I-34, 1-((R)-2-(5-fluoro-2-methoxyphenyl)-2-((tetrahydro-2H-pyran-4-yl)oxy)ethyl)-5-methyl-3-((R)-2-oxopyrrolidin-3-yl)-6-(2H-1,2,3-triazol-2-yl)thieno[2,3-d]pyrimidine-2,4(1H,3H)-dione] |  |  | 
> 4.1 | 0.25 to 1 (≈ 0.418 to 1.67 µM) | 2 to 10 | 1.1 to 2 (≈ 1.84 to 3.34 µM) | 1.1 to 2 (≈ 1.84 to 3.34 µM) | 0.25 to 1 (≈ 0.418 to 1.67 µM) | 0.25 to 1 (≈ 0.418 to 1.67 µM) | 0.25 to 1 (≈ 0.418 to 1.67 µM) | COc1ccc(F)cc1[C@H](Cn1c(=O)n([C@H]2CCCNC2=O)c(=O)c2c(C)c(-n3nccn3)sc21)OC1CCOCC1 [Compound I-37, 1-((R)-2-(5-fluoro-2-methoxyphenyl)-2-((tetrahydro-2H-pyran-4-yl)oxy)ethyl)-5-methyl-3-((S)-2-oxopiperidin-3-yl)-6-(2H-1,2,3-triazol-2-yl)thieno[2,3-d]pyrimidine-2,4(1H,3H)-dione] |  |  | 

Source: US20190330224A1, “ACC INHIBITORS AND USES THEREOF” (Gilead Apollo, LLC, priority 2015, published 2019)
